The values below are quoted from earlier work in patent US20070219127A1, “CYCLOSPORIN A COMPOSITIONS” (priority 2006, published 2007).

Each structure is given as a SMILES string.

Regarding `FC1(F)C(F)(F)C(F)(F)C2(F)C(F)(F)C(F)(F)C(F)(F)C(F)(F)C2(F)C1(F)F` (centres unmarked) [PFD, Perfluoro (decahydronaphthalene)], the “systemically administered elimination half-life” value is “about 7 days”.
For `FC1(F)C(F)(F)C(F)(F)C2(F)C(F)(C1(F)F)C(F)(F)C(F)(F)C1(F)C(F)(F)C(F)(F)C(F)(F)C(F)(F)C12F` (centres unmarked) [PPP, perfluoroperhydrophenanthrene], the “systemically administered elimination half-life” value was “about 7 days”.
